For test [1], the system named is cerebellar vermis of boys with ADHD. Description: T2 relaxometry (fMRI) of the cerebellar vermis after one week of daily treatment. The class given is in vivo, human. The settings on record: for decrease in vermal T2-RT relative to placebo (average): three least active boys with ADHD. As for the experimental part: (§1) In one particular embodiment, T2 relaxometry was used to indirectly assess blood volume in the cerebellum (hemispheres and midline vermis) of ten ADHD boys treated continuously for one week with placebo and three different doses of MPH. […] Following each week of treatment, and within 1-3 hours of their afternoon dose, testing for drug efficacy was performed using objective measures of activity.
Ten boys with ADHD (9.3±1.6 yr), and six healthy comparison subject boys (10.2±1.5 yr) were studied. Children with ADHD were screened using structured diagnostic interview (the Schedule for Affective Disorders and Schizophrenia for School-Age Children—Epidemiologic Version, “K-SADS-E”) and included if they met criteria for ADHD, and had at least 6 of 9 symptoms of inattention or hyperactivity-impulsivity. Children then took part in a triple blind (parent, child, rater), randomized, placebo-controlled study on the effects of methylphenidate (0, 0.5, 0.8, 1.5 mg/kg/day in two divided doses) on activity and fMRI. Children were treated continuously for one week with placebo or specific dose of methylphenidate. They were tested on day seven for drug response using objective measures of activity immediately following fMRI.
On test days, parents were instructed to give the afternoon dose 1 hour prior to their MRI appointment. Medication administration was assessed at each visit to insure that time between ingestion and testing were held constant for each subject throughout the study.
During each examination, 3 categories of images were obtained: (1) Scout images (typically T1-weighted sagittal images); (2) High resolution T1 matched axial images through the ten planes for which maps of T2 were generated; and (3) 32 spin echo, echoplanar image sets, with TE incremented by 4 msec in each consecutive image set (e.g. TE (1)=32 msec, TE (2)=36 msec, . . . TE (32)=156 msec) through the same ten axial planes ([…], Slice thickness=7 mm with a 3 mm skip, in-plane resolution=3.125 mm×3.125 mm, FOV=200 mm). The 32 TE-stepped images were then transferred to an off-line workstation and corrected for in plane motion using a modification of the DART image registration algorithm.
Values of T2 (x, y) and S (TE=0, x, y) were then calculated on a pixel-wise basis, assuming exponential decay, i.e. 1n [S (x, y, n)]=1n [S (TE=0), x, y]−TE (n)/T2 (x, y) where (x, y) describe the location of the pixel; n characterizes the echo number, from 1 to 32; and S is the image signal intensity. Linear least-squares regression was used to calculate a single T2 relaxation time measure for each pixel (x, y). Calculations of regional T2 relaxation time were made for regions of interest (ROI) drawn manually under the guidance of conventional T1-wighted matched MRI images in 2 to 4 slices through the cerebellum using anatomic boundaries observed in T1-weighted, preliminary T2-RT maps, and an atlas of the cerebellum. ROI slice selections were based on an assessment of the presence of cerebral spinal fluid in order to minimize partial volume artifacts, which result in abnormally elevated T2 relaxation times (values>100 msec were rejected). Sixteen voxel ROI's in the vermis were conservatively limited to square regions ([…]), to avoid encroaching into ventricular space and to provide consistency between slices and subjects.
FIGS. 7A and 7B show representative cerebellar ROIs including the vermis V and the left and right cerebella C. Delineation of regions and analysis of imaging data were performed on coded images, by an analyst very familiar with cerebellar anatomy who was blind to the identity, diagnosis, and treatment condition of the subject.

Test [2] concerns cerebellar hemispheres of boys with ADHD. Description: T2 relaxometry (fMRI) of the cerebellar hemispheres after one week of daily treatment. The class given is in vivo, human. The settings on record: Dose F=0.88, p>0.4; Dose x Activity F=0.47, p>0.7. As for the experimental part: as §1
Ten boys with ADHD (9.3±1.6 yr), and six healthy comparison subject boys (10.2±1.5 yr) were studied. Children with ADHD were screened using structured diagnostic interview (the Schedule for Affective Disorders and Schizophrenia for School-Age Children—Epidemiologic Version, “K-SADS-E”) and included if they met criteria for ADHD, and had at least 6 of 9 symptoms of inattention or hyperactivity-impulsivity. […]
On test days, parents were instructed to give the afternoon dose 1 hour prior to their MRI appointment. Medication administration was assessed at each visit to insure that time between ingestion and testing were held constant for each subject throughout the study. […]
Values of T2 (x, y) and S (TE=0, x, y) were then calculated on a pixel-wise basis, assuming exponential decay, i.e. 1n [S (x, y, n)]=1n [S (TE=0), x, y]−TE (n)/T2 (x, y) where (x, y) describe the location of the pixel; n characterizes the echo number, from 1 to 32; and S is the image signal intensity. […]

Test [3] relates to putamen of children with ADHD. Nature of the test: T2 relaxometry of the putamen, blinded placebo-controlled daily treatment. The settings on record: p=0.006. The class given is in vivo, human. An excerpt:
(§2) With this particular arrangement, an apparatus for indirectly assessing blood volume in the striatum (caudate and putamen and cerebellum) under steady-state conditions and for non-invasively diagnosing ADHD is provided. […] In one study eleven boys with ADHD had higher T2 relaxation times than six non-ADHD boys. The probability of this occurring by chance is 0.8%. The relaxation times correlated with the child's capacity to sit still, and their accuracy in performing a computerized attention task. Product-moment correlation coefficients (denoted r) for each of the above activities as well as with a probability of finding this occurrence by chance (denoted p) were computed using conventional techniques. […] It was discovered that ADHD symptoms may be closely tied to functional abnormalities in the putamen and cerebellum which are predominantly involved in the regulation and coordination of motoric behavior. […]
(§3) Turning now to FIG. 2, processing begins in steps 40 and 42 in which after positioning subjects to be tested (e.g. children or other persons possibly having brain dysfunction) in a scanning region of an MRI system of the type described above in conjunction with FIG. 1, and instructing the subjects to remain as still as possible, images of particular regions of interest (ROI) are acquired by perturbing the magnetic field in the subject and taking readings at particular times. […]

Test [4] deals with caudate or thalamus of children with ADHD. Nature of the test: T2 relaxometry of caudate and thalamus, blinded placebo-controlled daily treatment. The class given is in vivo, human.
Source text: as §2, §3

In test [5] the test system is cerebellum of the most hyperactive ADHD boys. Description: T2 relaxometry of the cerebellum, blinded placebo-controlled daily treatment (summary study). The settings on record: eight of the most hyperactive boys; F3,21=5.011, p=0.0089. The class given is in vivo, human. An excerpt: With this particular arrangement, an apparatus for indirectly assessing blood volume in the striatum (caudate and putamen and cerebellum) under steady-state conditions and for non-invasively diagnosing ADHD is provided. […] In one study eleven boys with ADHD had higher T2 relaxation times than six non-ADHD boys. The probability of this occurring by chance is 0.8%. The relaxation times correlated with the child's capacity to sit still, and their accuracy in performing a computerized attention task. Product-moment correlation coefficients (denoted r) for each of the above activities as well as with a probability of finding this occurrence by chance (denoted p) were computed using conventional techniques. […] It was discovered that ADHD symptoms may be closely tied to functional abnormalities in the putamen and cerebellum which are predominantly involved in the regulation and coordination of motoric behavior. […] It should also be appreciated that the apparatus and technique of the present invention may be equally applied to other brain regions (or even other organs) and may be useful for diagnosing conditions other than ADHD.
Referring now to FIG. 5, a T2 relaxation time image of the brain and cerebellum is shown. Circumscribed ROIs are illustrated for the cerebellar vermis V as well as, right R and left L cerebellar hemispheres. […]

In test [6] the test system is putamen of children with ADHD. The settings on record: stated as known; cited from earlier work.
Test [7] has as its system regional brain metabolism. The settings on record: cited from earlier work; for effect of chronic treatment on regional brain metabolism (PET): adult ADHD patients, Matochik et al. 1994.
Another test has as its system adult ADHD subjects. The settings on record: i.v., Ernst et al. 1998; cited from earlier work.

The structures appear in SMILES notation.

On to `COC(=O)C(c1ccccc1)C1CCCCN1` (stereo not drawn) [methylphenidate], for which the “increase in vermal T2-RT relative to placebo” value amounted to 5.1% in test [1] (high dose (1.5 mg/kg/day, one week), seven hyperactive ADHD boys); 2.1% in test [1] (intermediate dose (0.8 mg/kg/day, one week), seven hyperactive ADHD boys); 1.2% in test [1] (low dose (0.5 mg/kg/day, one week), seven boys at least 20% more active than the most active comparison subject). The “decrease in vermal T2-RT relative to placebo (average)” value in test [1] (high dose (1.5 mg/kg/day, one week)) was 3.9%; in test [1] (intermediate dose (0.8 mg/kg/day, one week)) it was 3.5%; in test [1] (low dose (0.5 mg/kg/day, one week)) it was 1.3%. Further, the “group effect (hyperactive vs non-hyperactive boys) on percent change in vermis T2-RT” value is listed as “significant group effect” in test [1] (high dose, F=15.98, df=1, 8, p=0.004); “significant group effect” in test [1] (intermediate dose, F=6.75, df=1, 8, p=0.04); “non-significant group effect” in test [1] (low dose, F=0.63, df=1, 8, p=0.63). Also, the “effect size (Cohen d) of the medication-induced change in T2-RT” value in test [1] (highest dose, hyperactive subjects, 95% CI in brackets) is recorded as 2.13 (95% CI, 0.82-3.44). Also, the “effect of moderate and high doses on T2-RT (direction by basal activity)” value in test [1] (increase in the most active ADHD children, reduction in those not objectively hyperactive) is “increased T2-RT in a rate-dependent manner”. Also, in test [1] (ten ADHD boys, F=1.167, df=3, 27, p=0.34), the “effect of dose on cerebellar or vermal T2-RT, repeated-measures ANOVA without covariate” value is “failed to reveal any significant effect of dose”. For the same compound, in test [1] (ten ADHD boys, F=4.85, df=3, 24, p=0.009, effect of dose linear), the “effect of treatment on vermal T2-RT, analysis of covariance with motor activity” value is “robust effect”. Besides, the “effect of treatment on T2-RT in the adjacent cerebellar hemispheres” value in test [2] is “No effect”. Besides, the “effect on relaxation times in the putamen” value in test [3] is “significantly altered”. In addition, the “change of relaxation times in caudate or thalamus” value in test [4] was “nor did relaxation times in these regions change”. Further, the “effect on relaxation times in the cerebellum” value in test [5] is given as “dose-dependently altered”. Besides, in test [6], the “effect of daily high-dose treatment on T2-RT in the putamen” value is given as “changed T2-RT in the putamen”. Also, the “effect of chronic treatment on regional brain metabolism (PET)” value in test [7] is recorded as “no consistent effect”. Also, the “effect on frontotemporal metabolism” value in test [7] (subjects with high availability of DA D2 receptors, Volkow et al. 1997) is “increased frontotemporal metabolism”. In test [7] (subjects with low availability of D2 receptors, Volkow et al. 1997), the effect on metabolism entry is on record as “decreased metabolism”.

As for `C[C@H](N)Cc1ccccc1` [dextroamphetamine], the “effect of chronic treatment on regional brain metabolism (PET)” value in test [7] is recorded as “no consistent effect”. The “effect on global or regional metabolic rates” value in test [7] (i.v., adult ADHD subjects, Ernst et al. 1998) is listed as “no consistent effect”. The effect on attention result in the test with adult ADHD subjects was “robust effects on attention”.
